One test has as its system Th17 cells. Briefly: Th17 Assay (IL-17 levels in supernatants by ELISA). The test is classed as cell-based. As to conditions: Homo sapiens; read-out: Th17 activity range @ 1 μM (% inhibition). As to the method: The activity of the compounds was evaluated using a Fluorescence Polarization (FP) Assay and, in most cases, a Th17 Assay and/or RORγ Reporter assay (also referred to as Gal4 assay). The FP assay is an in vitro assay monitoring binding within the ligand binding pocket. The RORγ and the Th17 assays are both cell-based assays monitoring functional activity of the compound assayed.
Human peripheral blood mononuclear cells (PBMCs) were isolated from buffy coats of healthy human volunteers using the Ficoll paque PLUS kit (GE Healthcare, cat no 17-1440-02), as instructed by the manufacturer. Naive CD4+ T cells were isolated with Naive CD4+ T cell kit, human (Milteny Biotec, cat no 130-094-131). The following modifications were made to the manufacturer's protocol: 1) Incubation with Biotin-Antibody Cocktail and Anti-Biotin MicroBeads was prolonged to 30 minutes, and 2) Cells were washed with 40 mL of Miltenyi buffer. Differentiation of Th17 cells in anti-CD3 (BD Pharmingen, 5 μg/ml) coated 96-well plates (400,000 cells/well, 160 μl RPMI 1640+10% Fetal Bovine Serum) containing 5 μg/ml anti-CD28 (BD Pharmingen), 10 ng/ml IL-2 (R&D Systems), 2.5 ng/ml TGFβ-1 (R&D Systems), 20 ng/ml IL-1β (R&D Systems), 20 ng/ml IL-6 (R&D Systems), 30 ng/ml IL-23 (R&D Systems), 2.5 μg/ml anti-IL-4 (R&D Systems) and 1 μg/ml anti-IFNγ (R&D Systems) and with test compound during the entire differentiation (or vehicle, 0.1% DMSO for control). Test compounds were tested in triplicates, diluted 1000-fold in medium (final DMSO concentration is 0.1%). Incubated for seven days at 37° C., 5% CO2, 95% humidity, and 2-fluoro-4′-[[4-(4-pyridinylmethyl)-1-piperazinyl]methyl]-α,α-bis(trifluoromethyl)-[1,1′-biphenyl]-4-methanol (SR2211 Calbiochem, Cat. No. 557353) was used as positive control. As negative control, cells were differentiated into Th0 using 5 μg/ml anti-CD28 (BD Pharmingen), 10 ng/ml IL-2 (R&D Systems), 2 μg/ml anti-IL4 (R&D Systems) and 2 μg/ml anti-IFNγ (R&D Systems) are negative control. IL-17 levels in supernatants were measured with ELISA (R&D Systems).
A general note: In an ELISA, binding on a coated surface is turned into a signal by an enzyme label.

Test [1] concerns the target T1, human RORγt (Ligand Binding Domain) (Homo sapiens, UniProt P51449).
T1 construct: purchased Crelux (Planegg, Germany) batch no PC5032-1
T1 sequence (P51449 269-508 limits assumed): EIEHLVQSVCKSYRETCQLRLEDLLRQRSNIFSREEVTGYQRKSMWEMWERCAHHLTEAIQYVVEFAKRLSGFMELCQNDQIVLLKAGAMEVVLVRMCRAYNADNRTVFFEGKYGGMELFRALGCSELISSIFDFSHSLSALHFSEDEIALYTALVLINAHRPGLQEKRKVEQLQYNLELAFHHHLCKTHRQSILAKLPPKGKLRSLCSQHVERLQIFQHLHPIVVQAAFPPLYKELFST
Briefly: Fluorescence Polarization (FP) Assay. As to conditions: Fluorescence Polarization (FP) Assay; values given as upper bounds of activity ranges; read-out: FP activity range. In a few lines:
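In vitro FP binding assay monitoring ligand binding within the ligand binding pocket. Probe is a TAMRA-labelled RORγt ligand (MW 910 g/mole); DMSO served as negative control.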
For orientation: Polarisation of emitted light reports the rotation of a fluorescent probe.

In test [2] the target is T2, yeast Gal4-DNA binding domain fused to the ligand binding domain of human RORγ (Homo sapiens, UniProt P51449).
T2 construct: host or cells: HEK293t
T2 sequence (P51449 269-508 limits assumed): T1 sequence (P51449 269-508 limits assumed)
Briefly: RORγ Reporter Assay (Gal4). The test is classed as cell-based. As to conditions: values given as lower bounds of ranges; for Gal4 activity range @ 0.1 μM (% inhibition): RORγ Reporter Assay (Gal4) at 0.1 μM; for Gal4 activity range @ 1 μM (% inhibition): RORγ Reporter Assay (Gal4) at 1 μM. In a few lines:
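HEK293t reporter cells expressing the hybrid, with Gal4-UAS-driven firefly luciferase, treated in triplicate with compound at 1,000 nM and 100 nM (0.1% DMSO) in medium with 10% charcoal-stripped FBS for 24 h at 37 °C. Luminescence read; percent reduction of RLU calculated relative to vehicle.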
(In general: Reporter assays use an easily measured gene product as a stand-in for the process of interest.)

18 compounds from patent publication US10689383B2, “Optionally fused heterocyclyl-substituted derivatives of pyrimidine useful for the treatment of inflammatory, metabolic, oncologic and autoimmune diseases” (NUEVOLUTION A/S, priority 2014, dated 2020) can be followed below.

By inhibition is commonly meant the change of the read-out against control, counted positive when it falls. In the case of `CC(C)C[C@@H](Oc1ncnc(N2CCC[C@@H]2c2ccc(C(F)(F)F)cc2)c1F)C(N)=O` (single isomer, unassigned) [Example 77, (2R)-2-[5-fluoro-6-[(2R)-2-[4-(trifluoromethyl)phenyl]pyrrolidin-1-yl]pyrimidin-4-yl]oxy-4-methyl-pentanamide or (2R)-2-[5-fluoro-6-[(2S)-2-[4-(trifluoromethyl)phenyl]pyrrolidin-1-yl]pyrimidin-4-yl]oxy-4-methyl-pentanamide], the inhibition at 1 µM with Th17 cells is > 50%.
As to `CC(C)(C)C[C@@H](Nc1cc(N2CCCC2c2ccc(C(F)(F)F)cc2)ncn1)C(N)=O` (stereo partly drawn) [Example 6, (2R)-4,4-dimethyl-2-[[6-[2-[4-(trifluoromethyl)phenyl]pyrrolidin-1-yl]pyrimidin-4-yl]amino]pentanamide], the inhibition at 1 µM in the test on Th17 cells is > 20%. Further, the IC50 in test [1] is < 10000 nM.
The matching figures for `CC(C)(C)C[C@@H](Nc1nc(C(F)(F)F)nc(N2CCCC2c2ccc(C(F)(F)F)cc2)c1F)C(N)=O` (stereo partly drawn) [Example 13, (2R)-2-[[5-fluoro-2-(trifluoromethyl)-6-[2-[4-(trifluoromethyl)phenyl]pyrrolidin-1-yl]pyrimidin-4-yl]amino]-4,4-dimethyl-pentanamide]: > 20% and < 10000 nM.
`COC(C)(C)CC(C)Nc1ncnc(N2CCCC2c2ccc(C(F)(F)F)cc2)c1F` (stereo not shown) [Example 16, 5-fluoro-N-(3-methoxy-1,3-dimethyl-butyl)-6-[2-[4-(trifluoromethyl)phenyl]pyrrolidin-1-yl]pyrimidin-4-amine]: the inhibition at 1 µM in the test with Th17 cells was > 0%.
As for `CC1CC(c2ccc(C(F)(F)F)cc2)N(c2ncnc(N[C@H](CC(C)(C)C)C(N)=O)c2F)C1` (stereo partly drawn) [Example 18, (2R)-2-[[5-fluoro-6-[4-methyl-2-[4-(trifluoromethyl)phenyl]pyrrolidin-1-yl]pyrimidin-4-yl]amino]-4,4-dimethyl-pentanamide], the inhibition at 1 µM in the test with Th17 cells was > 80%. The IC50 in test [1] was < 500 nM.
The like results for `CC(C)(C)C[C@@H](Nc1ncnc(N2CCCC2c2ccc(C(C)(C)C)cc2)c1F)C(N)=O` (stereo partly drawn) [Example 19, (2R)-2-[[6-[2-(4-tert-butylphenyl)pyrrolidin-1-yl]-5-fluoro-pyrimidin-4-yl]amino]-4,4-dimethyl-pentanamide] were, in that order, > 80% and < 500 nM.
The matching figures for `COc1ccc(C[C@H](CO)Nc2ncnc(N3CCCC3c3ccc(C(F)(F)F)cc3)c2F)cc1` (stereo partly drawn) [Example 29, (2R)-2-[[5-fluoro-6-[2-[4-(trifluoromethyl)phenyl]pyrrolidin-1-yl]pyrimidin-4-yl]amino]-3-(4-methoxyphenyl)propan-1-ol]: > 50% and < 1000 nM.
Consider `CC(C)C[C@@H](Oc1ncnc(-n2nccc2-c2ccc(C(F)(F)F)cc2)c1F)C(N)=O` [Example 80, (2R)-2-[5-fluoro-6-[5-[4-(trifluoromethyl)phenyl]pyrazol-1-yl]pyrimidin-4-yl]oxy-4-methyl-pentanamide], for which the inhibition at 1 µM in the test on Th17 cells was > 50%.
Still for that read-out and setting: the same measure for `O=C(O)Cc1ccc(COc2ncnc(NCc3ccc(C(F)(F)F)cc3)c2F)cc1` [Example 83, 2-[4-[[5-fluoro-6-[[4-(trifluoromethyl)phenyl]methylamino]pyrimidin-4-yl]oxymethyl]phenyl]acetic acid]: > 20%.
Regarding `CCc1ccc(C2CCCN2c2ncnc(NCc3ccc(CC(N)=O)cc3)c2F)o1` (stereo not shown) [Example 316, 2-[4-[[[6-[2-(5-ethyl-2-furyl)pyrrolidin-1-yl]-5-fluoro-pyrimidin-4-yl]amino]methyl]phenyl]acetamide], in test [1], the IC50 is < 500 nM. In test [2], the “Gal4 activity range @ 0.1 μM (% inhibition)” value was >20 % inhibition and the “Gal4 activity range @ 1 μM (% inhibition)” value is listed as >80 % inhibition.
The matching figures for `COc1ccc(C2CCCN2c2ncnc(NCc3ccc(CC(N)=O)cc3)c2F)c(OC)c1` (stereo not shown) [Example 318, 2-[4-[[[6-[2-(2,4-dimethoxyphenyl)pyrrolidin-1-yl]-5-fluoro-pyrimidin-4-yl]amino]methyl]phenyl]acetamide]: < 500 nM, >20 % inhibition and >20 % inhibition.
As to `O=S(=O)(O)c1ccc(CNc2ncnc(N3CCC[C@@H]3c3ccc(C(F)(F)F)cc3)c2F)cc1` [Example 319, 4-[[[5-fluoro-6-[(2R)-2-[4-(trifluoromethyl)phenyl]pyrrolidin-1-yl]pyrimidin-4-yl]amino]methyl]benzenesulfonic acid], in test [1], the IC50 was < 500 nM. The “Gal4 activity range @ 1 μM (% inhibition)” value in test [2] is >0 % inhibition.
As to `COCCNS(=O)(=O)c1ccc(CNc2ncnc(N3CCC[C@@H]3c3ccc(C(F)(F)F)cc3)c2F)cc1` [Example 320, 4-[[[5-fluoro-6-[(2R)-2-[4-(trifluoromethyl)phenyl]pyrrolidin-1-yl]pyrimidin-4-yl]amino]methyl]-N-(2-methoxyethyl)benzenesulfonamide], the IC50 in test [1] was < 500 nM. In test [2], the “Gal4 activity range @ 0.1 μM (% inhibition)” value is >80 % inhibition and the “Gal4 activity range @ 1 μM (% inhibition)” value was >80 % inhibition.
Regarding `NC(=O)Cc1ccc(CNc2ncnc(N3CCCC3c3ccc(C(F)(F)F)cc3O)c2F)cc1` (stereo not shown) [Example 323, 2-[4-[[[5-fluoro-6-[2-[2-hydroxy-4-(trifluoromethyl)phenyl]pyrrolidin-1-yl]pyrimidin-4-yl]amino]methyl]phenyl]acetamide], the IC50 in test [1] is < 500 nM. Further, in test [2], the “Gal4 activity range @ 0.1 μM (% inhibition)” value is >80 % inhibition and the “Gal4 activity range @ 1 μM (% inhibition)” value is reported as >80 % inhibition.
With `CS(=O)(=O)N1CCC(CNc2ncnc(N3CCCC3c3ccc(C(F)(F)F)cc3O)c2F)CC1` (stereo not shown) [Example 324, 2-[1-[5-fluoro-6-[(1-methylsulfonyl-4-piperidyl)methylamino]pyrimidin-4-yl]pyrrolidin-2-yl]-5-(trifluoromethyl)phenol], the IC50 in test [1] is < 500 nM. In test [2], the “Gal4 activity range @ 0.1 μM (% inhibition)” value was >50 % inhibition and the “Gal4 activity range @ 1 μM (% inhibition)” value is listed as >80 % inhibition.
The like results for `NC(=O)Cc1ccc(Cn2ccc3c(N4CCOC[C@@H]4c4ccc(C(F)(F)F)nc4)ncnc32)cc1` [Example 326, 2-[4-[[4-[(3S)-3-[6-(trifluoromethyl)-3-pyridyl]morpholin-4-yl]pyrrolo[2,3-d]pyrimidin-7-yl]methyl]phenyl]acetamide] were, in that order, < 500 nM, >50 % inhibition and >80 % inhibition.
The matching figures for `CS(=O)(=O)N1CCC(CNc2ncnc(N3CCOC[C@@H]3c3ccc(C(F)(F)F)cc3)c2F)C1` (stereo partly drawn) [Example 327, 5-fluoro-N-[(1-methylsulfonylpyrrolidin-3-yl)methyl]-6-[(3S)-3-[4-(trifluoromethyl)phenyl]morpholin-4-yl]pyrimidin-4-amine]: < 1000 nM, >20 % inhibition and >80 % inhibition.
In the case of `NC(=O)Cc1ccc(Cn2ccc3c(N4CCOC[C@@H]4c4ccc(C(F)(F)F)cn4)ncnc32)cc1` [Example 328, 2-[4-[[4-[(3S)-3-[5-(trifluoromethyl)-2-pyridyl]morpholin-4-yl]pyrrolo[2,3-d]pyrimidin-7-yl]methyl]phenyl]acetamide], in test [1], the IC50 is < 500 nM. Further, in test [2], the “Gal4 activity range @ 0.1 μM (% inhibition)” value was >80 % inhibition and the “Gal4 activity range @ 1 μM (% inhibition)” value is reported as >80 % inhibition.
